Like-named read-outs stand apart in the source and are kept apart here.
Biological target: T1, human orexin type 2 receptor (hOX2R) (Homo sapiens, UniProt O43614)
T1 construct: expressed in transfected cells
T1 sequence (O43614 1-444): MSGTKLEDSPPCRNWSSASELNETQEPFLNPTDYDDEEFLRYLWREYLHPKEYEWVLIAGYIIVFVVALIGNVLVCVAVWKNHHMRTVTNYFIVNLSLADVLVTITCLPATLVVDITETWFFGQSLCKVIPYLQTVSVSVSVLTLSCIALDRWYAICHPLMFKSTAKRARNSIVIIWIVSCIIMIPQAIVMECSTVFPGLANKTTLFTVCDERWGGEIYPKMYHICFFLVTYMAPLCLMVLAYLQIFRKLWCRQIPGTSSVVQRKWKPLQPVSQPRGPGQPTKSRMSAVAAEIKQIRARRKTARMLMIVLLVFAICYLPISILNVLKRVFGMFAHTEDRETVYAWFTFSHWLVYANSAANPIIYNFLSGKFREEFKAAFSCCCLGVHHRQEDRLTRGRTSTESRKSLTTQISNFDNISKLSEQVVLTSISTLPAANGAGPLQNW
Test: Measurement of orexin type 2 receptor agonist activity (FLIPR calcium fluorescence)
Type: cell-based
Details: for EC50: read-out: hOx2 pEC50 (converted); for Emax: CHO, read-out: hOx2 Emax (%)
Experimental: The biological activity of the compounds of the present disclosure may be determined in cells stably expressing either orexin type 2 or orexin type 1 receptor. […] The agonist activity of a compound of the present disclosure may be determined by fluorescence value.
Stable cell line generation.
Measurement of orexin type 2 receptor agonist activity. […] As used herein, E. indicates the value at 10 μM concentration when orexin A is converted to a full agonist (maximum value of agonist activity. 100%).

[1] = CHO cells expressing hOX2R, FLIPR calcium fluorescence

| EC50 [1] [nM] | Emax [1] [%] | hOx2 pEC50 [1] | SMILES | Emax [%] |
| --- | --- | --- | --- | --- |
| 10 to 100 | 90 to 100 | – | CS(=O)(=O)N[C@@H]1[C@H](Cc2cccc(-c3ccccc3)c2)N(C(=O)[C@H]2C[C@@H](F)C2)CC12CC2 (racemic) [Compound 308, N-(-6-([1,1′-biphenyl]-3-ylmethyl)-5-((1s,3R)-3-fluorocyclobutane-1-carbonyl)-5-azaspiro[2.4]heptan-7-yl)methanesulfonamide] | – |
| 1 to 10 | 90 to 100 | – | [2H]c1c([2H])c([2H])c(-c2cccc(C[C@H]3[C@@H](NS(=O)(=O)C(F)F)C4(CC4)CN3C(=O)[C@H]3CCO3)c2F)c([2H])c1[2H] [Compound 173, 1,1-difluoro-N-((6S,7S)-6-((2-fluoro-[1,1′-biphenyl]-3-yl-2′,3′,4′,5′,6′-d5)methyl)-5-((R)-oxetane-2-carbonyl)-5-azaspiro[2.4]heptan-7-yl)methanesulfonamide] | – |
| 10 to 100 | 90 to 100 | – | CO[C@H]1CCN(C(=O)N2CC3(CC3)[C@H](NS(C)(=O)=O)[C@@H]2Cc2cccc(-c3ccccc3)c2F)C1 [Compound 313, N-((6S,7S)-6-((2-fluoro-[1,1′-biphenyl]-3-yl)methyl)-5-((S)-3-methoxypyrrolidine-1-carbonyl)-5-azaspiro[2.4]heptan-7-yl)methanesulfonamide] | – |
| 0.0794 to 1 | 90 to 100 | – | O=C([C@H]1CCO1)N1CC2(CC2)[C@H](NS(=O)(=O)C2CC2)[C@@H]1Cc1cccc(-c2cc(F)cc(F)c2)c1F [Compound 223, N-((6S,7S)-5-((R)-oxetane-2-carbonyl)-6-((2,3′,5′-trifluoro-[1,1′-biphenyl]-3-yl)methyl)-5-azaspiro[2.4]heptan-7-yl)cyclopropanesulfonamide] | – |
| 10 to 100 | 90 to 100 | – | CC(C)(O)C(=O)N1CC2(CC2)C(NS(C)(=O)=O)C1Cc1cccc(-c2cc(F)cc(F)c2)c1F (racemic) [Compound 28, N-(5-(2-hydroxy-2-methylpropanoyl)-6-((2,3′,5′-trifluoro-[1,1′-biphenyl]-3-yl)methyl)-5-azaspiro[2.4]heptan-7-yl)methanesulfonamide] | – |
| 1 to 10 | 90 to 100 | – | [2H]c1c([2H])c([2H])c(-c2cc(F)cc(C[C@H]3[C@@H](NS(C)(=O)=O)C4(CC4)CN3C(=O)[C@H]3CCO3)c2F)c([2H])c1[2H] [Compound 348, N-((6S,7S)-6-((2,5-difluoro-[1,1′-biphenyl]-3-yl-2′,3′,4′,5′,6′-d5)methyl)-5-((R)-oxetane-2-carbonyl)-5-azaspiro[2.4]heptan-7-yl)methanesulfonamide] | – |
| 1 to 10 | 90 to 100 | – | CS(=O)(=O)N[C@@H]1[C@H](Cc2cccc(-c3ccccc3)c2F)N(C(=O)NC[C@H]2CCO2)CC12CC2 [Compound 331, (6S,7S)-6-((2-fluoro-[1,1′-biphenyl]-3-yl)methyl)-7-(methylsulfonamido)-N-(((R)-oxetan-2-yl)methyl)-5-azaspiro[2.4]heptane-5-carboxamide] | – |
| 10 to 100 | 90 to 100 | – | COCCNC(=O)N1CC2(CC2)[C@H](NS(C)(=O)=O)[C@@H]1Cc1cccc(-c2ccccc2)c1F (racemic) [Compound 306, 6-((2-fluoro-[1,1′-biphenyl]-3-yl)methyl)-N-(2-methoxyethyl)-7-(methylsulfonamido)-5-azaspiro[2.4]heptane-5-carboxamide] | – |
| 1 to 10 | 90 to 100 | – | O=C([C@H]1CCCO1)N1CC2(CC2)[C@H](NS(=O)(=O)CF)[C@@H]1Cc1cccc(-c2ccccc2)c1F [Compound 401, 1-fluoro-N-((6S,7S)-6-((2-fluoro-[1,1′-biphenyl]-3-yl)methyl)-5-((R)-tetrahydrofuran-2-carbonyl)-5-azaspiro[2.4]heptan-7-yl)methanesulfonamide] | – |
| 1 to 10 | 80 to 90 | – | CCNC(=O)N1CC2(CC2)C(NS(C)(=O)=O)C1Cc1cccc(-c2ccccc2)c1OC (racemic) [Compound 44, N-ethyl-6-((2-methoxy-[1,1′-biphenyl]-3-yl)methyl)-7-(methylsulfonamido)-5-azaspiro[2.4]heptane-5-carboxamide] | – |
| 0.0794 to 1 | 90 to 100 | – | CS(=O)(=O)N[C@@H]1[C@H](Cc2cccc(-c3cc(F)cc(F)c3)c2F)N(C(=O)N2CCC2)CC12CC2 [Compound 32, N-((6S,7S)-5-(azetidine-1-carbonyl)-6-((2,3′,5′-trifluoro-[1,1′-biphenyl]-3-yl)methyl)-5-azaspiro[2.4]heptan-7-yl)methanesulfonamide] | – |
| 1 to 10 | 90 to 100 | – | O=C(NC[C@@H]1CCO1)N1CC2(CC2)[C@H](NS(=O)(=O)CF)[C@@H]1Cc1cccc(-c2ccccc2)c1F [Compound 374, (6S,7S)-6-((2-fluoro-[1,1′-biphenyl]-3-yl)methyl)-7-((fluoromethyl)sulfonamido)-N-(((S)-oxetan-2-yl)methyl)-5-azaspiro[2.4]heptane-5-carboxamide] | – |
| 10 to 100 | 90 to 100 | – | CS(=O)(=O)N[C@@H]1[C@H](Cc2cccc(-c3ccccc3)c2F)N(C(=O)NC23CC(F)(C2)C3)CC12CC2 [Compound 319, (6S,7S)-6-((2-fluoro-[1,1′-biphenyl]-3-yl)methyl)-N-(3-fluorobicyclo[1.1.1]pentan-1-yl)-7-(methylsulfonamido)-5-azaspiro[2.4]heptane-5-carboxamide] | – |
| 1 to 10 | 90 to 100 | – | O=C(N1CC(F)C1)N1CC2(CC2)C(NS(=O)(=O)CF)C1Cc1cccc(-c2ccccc2)c1F (racemic) [Compound 105, 1-fluoro-N-(6-((2-fluoro-[1,1′-biphenyl]-3-yl)methyl)-5-(3-fluoroazetidine-1-carbonyl)-5-azaspiro[2.4]heptan-7-yl)methanesulfonamide] | – |
| – | 70 to 80 | *** (pEC50 ranging between 7.0 and 8.0) | COc1c(C[C@H]2[C@@H](NS(C)(=O)=O)C3(CC3)CN2C(=O)C2CC(F)C2)cccc1-c1ccccc1 (stereo partly drawn) [Compound 339, N-((6S,7S)-5-(3-fluorocyclobutane-1-carbonyl)-6-((2-methoxy-[1,1′-biphenyl]-3-yl)methyl)-5-azaspiro[2.4]heptan-7-yl)methanesulfonamide] | – |
| 10 to 100 | 90 to 100 | – | CC(C)C(=O)N1CC2(CC2)C(NS(C)(=O)=O)C1Cc1cccc(-c2ccccc2)c1 (racemic) [Compound 15, N-(6-([1,1′-biphenyl]-3-ylmethyl)-5-isobutyryl-5-azaspiro[2.4]heptan-7-yl)methanesulfonamide] | – |
| 1 to 10 | 90 to 100 | – | CN(C)S(=O)(=O)NC1C(Cc2cccc(-c3ccccc3)c2F)N(C(=O)C2CCC2)CC12CC2 (racemic) [Compound 92, N-(5-(cyclobutanecarbonyl)-6-((2-fluoro-[1,1′-biphenyl]-3-yl)methyl)-5-azaspiro[2.4]heptan-7-yl)-N,N-dimethylsulfuric diamide] | – |
| 0.0794 to 1 | 90 to 100 | – | CN(C)S(=O)(=O)N[C@@H]1[C@H](Cc2cccc(-c3ccccc3)c2F)N(C(=O)C2(O)CCC2)CC12CC2 [Compound 120, N-((6S,7S)-6-((2-fluoro-[1,1′-biphenyl]-3-yl)methyl)-5-(1-hydroxycyclobutane-1-carbonyl)-5-azaspiro[2.4]heptan-7-yl)-N,N-dimethylsulfuric diamide] | – |
| 1 to 10 | 90 to 100 | – | O=C([C@H]1CCO1)N1CC2(CC2)[C@H](NS(=O)(=O)C(F)F)[C@@H]1Cc1cc(F)cc(-c2cccc(F)c2)c1F [Compound 176, 1,1-difluoro-N-((6S,7S)-5-((R)-oxetane-2-carbonyl)-6-((2,3′,5-trifluoro-[1,1′-biphenyl]-3-yl)methyl)-5-azaspiro[2.4]heptan-7-yl)methanesulfonamide] | – |
| 1 to 10 | 90 to 100 | – | CS(=O)(=O)N[C@@H]1[C@H](Cc2cccc(-c3ccccc3)c2F)N(C(=O)N2CCC2)CC12CC2 [Compound 35, N-((6S,7S)-5-(azetidine-1-carbonyl)-6-((2-fluoro-[1,1′-biphenyl]-3-yl)methyl)-5-azaspiro[2.4]heptan-7-yl)methanesulfonamide] | – |
| 10 to 100 | 80 to 90 | – | CS(=O)(=O)N[C@@H]1[C@H](Cc2cccc(-c3ccccc3)c2F)N(C(=O)NC2CC(F)C2)CC12CC2 (stereo partly drawn) [Compound 315, (6S,7S)-6-((2-fluoro-[1,1′-biphenyl]-3-yl)methyl)-N-(3-fluorocyclobutyl)-7-(methylsulfonamido)-5-azaspiro[2.4]heptane-5-carboxamide] | – |
| 1 to 10 | 90 to 100 | – | CS(=O)(=O)N[C@@H]1[C@H](Cc2cccc(-c3ccccc3)c2F)N(C(=O)[C@H](O)C(F)(F)F)CC12CC2 [Compound 56, N-((6S,7S)-6-((2-fluoro-[1,1′-biphenyl]-3-yl)methyl)-5-((S)-3,3,3-trifluoro-2-hydroxypropanoyl)-5-azaspiro[2.4]heptan-7-yl)methanesulfonamide] | – |

| SMILES | EC50 [1] [nM] | Emax [1] [%] | hOx2 pEC50 [1] | Emax [%] |
| --- | --- | --- | --- | --- |
| O=C([C@H]1CCO1)N1CC2(CC2)[C@H](NS(=O)(=O)C(F)F)[C@@H]1Cc1cccc(-c2ccccc2)c1 [Compound 115, N-((6S,7S)-6-([1,1′-biphenyl]-3-ylmethyl)-5-((R)-oxetane-2-carbonyl)-5-azaspiro[2.4]heptan-7-yl)-1,1-difluoromethanesulfonamide] | 1 to 10 | – | – | 90 to 100 |

From patent publication US12503475B2 (Centessa Pharmaceuticals (UK) Limited, priority 2020, dated 2025)
